Data published in ChEMBL document CHEMBL4402557, “Nidufexor (LMB763), a Novel FXR Modulator for the Treatment of Nonalcoholic Steatohepatitis” (J Med Chem, 2020).
Active and inactive are the calls of the source. The calls are words filed in the database; no cut-off is given here.

Assays:
[1] = molecular target: T1, Peroxisome proliferator-activated receptor gamma (Homo sapiens, UniProt P37231); assay: Agonist activity at GAL4-fused PPARgamma (unknown origin) expressed in HEK293T cells incubated for 24 by BrightGlo reagent based assay; format: cell-based
T1 sequence (P37231 whole entry): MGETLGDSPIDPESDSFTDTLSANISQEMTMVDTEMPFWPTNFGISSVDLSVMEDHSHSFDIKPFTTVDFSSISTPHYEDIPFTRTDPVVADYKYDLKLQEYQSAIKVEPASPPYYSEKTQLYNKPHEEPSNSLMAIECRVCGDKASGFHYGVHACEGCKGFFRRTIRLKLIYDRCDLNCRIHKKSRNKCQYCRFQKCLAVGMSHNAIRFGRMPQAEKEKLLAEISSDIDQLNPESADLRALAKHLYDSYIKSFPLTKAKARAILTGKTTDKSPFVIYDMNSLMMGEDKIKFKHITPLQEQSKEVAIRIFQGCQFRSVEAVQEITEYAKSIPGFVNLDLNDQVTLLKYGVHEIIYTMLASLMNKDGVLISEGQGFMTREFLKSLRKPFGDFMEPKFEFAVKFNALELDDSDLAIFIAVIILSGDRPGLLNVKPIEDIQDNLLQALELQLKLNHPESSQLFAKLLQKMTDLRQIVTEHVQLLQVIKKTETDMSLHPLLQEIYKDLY

[2] = Volume of distribution at steady state in dog at 0.5 mg/kg, iv; format: ADME, organism-based, Canis lupus familiaris; conditions: in vivo, read-out: Vdss
[3] = molecular target: T2, Oxysterols receptor LXR-alpha (Homo sapiens, UniProt Q13133); assay: Agonist activity at GAL4-fused LXR LBD (unknown origin) expressed in HEK293T cells incubated for 24 by BrightGlo reagent based assay; format: cell-based
T2 sequence (Q13133 whole entry): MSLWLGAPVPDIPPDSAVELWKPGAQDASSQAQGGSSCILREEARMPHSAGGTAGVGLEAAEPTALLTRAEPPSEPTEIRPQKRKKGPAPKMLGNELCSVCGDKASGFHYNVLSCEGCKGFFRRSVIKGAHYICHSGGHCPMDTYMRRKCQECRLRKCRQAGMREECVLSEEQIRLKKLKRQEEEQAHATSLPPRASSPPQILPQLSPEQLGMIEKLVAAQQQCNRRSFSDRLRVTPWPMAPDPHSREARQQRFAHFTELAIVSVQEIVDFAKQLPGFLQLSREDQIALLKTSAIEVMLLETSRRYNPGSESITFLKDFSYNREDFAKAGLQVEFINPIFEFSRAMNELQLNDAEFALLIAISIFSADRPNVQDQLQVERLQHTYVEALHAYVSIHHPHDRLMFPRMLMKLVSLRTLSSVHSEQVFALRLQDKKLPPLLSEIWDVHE

[4] = Volume of distribution at steady state in mouse at 3 mg/kg, iv; format: ADME, organism-based; conditions: in vivo, read-out: Vdss
[5] = Terminal half life in orally dosed rat; format: ADME, organism-based; conditions: in vivo, po, read-out: beta t1/2 (converted)
[6] = Half life in Wistar rat at 300 mg/kg, po; format: ADME, organism-based; conditions: in vivo
Mus musculus = species: Mus musculus; assay: Anti Steato-hepatitic activity in C57BL/6J mouse STAM model assessed as change in Aldh1l2 gene level in liver; format: functional, organism-based
Rattus norvegicus [7] = assay: In-vivo agonist activity at FXR in Han Wistar rat assessed as upregulation of FGF15 protein level in serum at 1.5 mg/kg administered via oral gavage once daily for 14 days measured 10 hrs post last dose relative to control; format: functional
[8] = AUC in Wistar rat liver at 10 mg/kg, po; format: ADME, organism-based
Rattus norvegicus [9] = assay: In-vivo agonist activity at FXR in orally dosed Han Wistar rat assessed as repression of CYP7a1 mRNA level in liver administered via oral gavage once daily for 14 days measured post last dose by qRT-PCR analysis; format: functional, organism-based
[10] = molecular target: T3, G-protein coupled bile acid receptor 1 (Homo sapiens, UniProt Q8TDU6); assay: Agonist activity at human GPBAR1 expressed in Jurkat cells assessed as increase in intracellular cAMP level incubated for 1 hr by fluorescence based assay; format: functional, cell-based
T3 sequence (Q8TDU6 whole entry): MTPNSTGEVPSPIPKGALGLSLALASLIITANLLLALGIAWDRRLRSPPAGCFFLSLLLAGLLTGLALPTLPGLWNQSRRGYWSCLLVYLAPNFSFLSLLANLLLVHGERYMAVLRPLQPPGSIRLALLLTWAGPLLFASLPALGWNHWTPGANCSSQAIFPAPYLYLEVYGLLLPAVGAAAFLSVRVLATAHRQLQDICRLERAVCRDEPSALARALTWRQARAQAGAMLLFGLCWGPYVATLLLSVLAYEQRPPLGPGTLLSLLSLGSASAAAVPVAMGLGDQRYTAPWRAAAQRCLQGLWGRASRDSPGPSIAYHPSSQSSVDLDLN

[11] = Metabolic stability in human liver microsomes assessed as hepatic extraction ratio; format: ADME, Microsome; conditions: read-out: ERH
[12] = molecular target: T4, Bile acid receptor (Rattus norvegicus) (UniProt Q62735); assay: Agonist activity at FXR in rat primary hepatocytes assessed as increase in SHP mRNA level incubated for 24 hrs by qRT-PCR analysis relative to tropifexor; format: cell-based
T4 sequence (whole entry): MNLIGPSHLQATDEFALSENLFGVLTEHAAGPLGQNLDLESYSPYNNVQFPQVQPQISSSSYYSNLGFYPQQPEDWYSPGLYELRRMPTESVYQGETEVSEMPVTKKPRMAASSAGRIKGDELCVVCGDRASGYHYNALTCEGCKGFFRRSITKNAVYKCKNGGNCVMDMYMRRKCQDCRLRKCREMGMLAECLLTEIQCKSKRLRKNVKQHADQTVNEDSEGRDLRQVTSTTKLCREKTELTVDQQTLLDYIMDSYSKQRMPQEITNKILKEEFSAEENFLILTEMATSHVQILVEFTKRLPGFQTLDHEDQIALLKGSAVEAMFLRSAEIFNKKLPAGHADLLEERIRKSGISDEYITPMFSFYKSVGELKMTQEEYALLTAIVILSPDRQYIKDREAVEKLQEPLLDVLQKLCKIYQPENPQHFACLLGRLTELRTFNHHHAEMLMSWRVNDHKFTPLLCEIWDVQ

[13] = Oral bioavailability in Wistar rat at 100 mg/kg in presence of TRIS salt; format: ADME, organism-based; conditions: in vivo
[14] = Cmax in Wistar rat at 100 mg/kg, po; format: ADME, organism-based; design: dose 100 mg/kg, route oral; conditions: in vivo

EC50 [1]: > 10 µM | Vd [2]: 1.1 L/kg | EC50 [3]: > 10 µM | Vd [4]: 0.9 L/kg | half-life [5]: 13 h | half-life [6]: 6.3 h | AUC [8]: 36.7 µM·h | EC50 [10]: > 80 µM | hepatic extraction ratio [11]: < 0.21 | Activity [12]: 65% | bioavailability [13]: 82% | Cmax [14]: 80.9 µM
SMILES: Cn1nc(C(=O)N(Cc2ccccc2)Cc2ccc(C(=O)O)cc2)c2c1-c1cc(Cl)ccc1OC2 [NIDUFEXOR]
Activity (Mus musculus): Active | fold change (FC) (Rattus norvegicus [7]): 3.5 | Activity (Rattus norvegicus [9]): Active
